Source: patent publication US11458153B2, “Drug delivery composition comprising a self-assembled gelator” (The Brigham and Women's Hospital, Inc., priority 2008, dated 2022)

Test system: mesenchymal stem cells (MSCs)
Test: MSC viability, trypan blue exclusion
Format: cell-based, human
Experimental: Cytocompatibility. The cytocompatibility of prodrugs generated from small modification of known drugs was investigated. […] To test the cyto compatibility of prodrug-based amphiphiles and bolaamphiphiles, and their effect on cell characteristics such as viability, proliferation, adhesion and cell phenotype, a series of experiments was performed with mesenchymal stem cells (MSCs). To gain more insight into the effect of modification, unmodified drug Apn was used as a control. The viability of control cells and cells treated with Apn, Apn-7-COOH and Apn-8-Apn was examined with trypan blue assay. Use of Mesenchymal stem cells is appropriate given that these systems may be used for localized release likely into connective tissues.
Mesenchymal Stem Cell Culture. Primary human mesenchymal stem cells were maintained in expansion media that consisted of 15% Fetal Bovine Serum (selected for its ability to expand MSCs), 1% (v/v) L-Glutamine, 1% (v/v) Penn-Strep, and α-MEM. All experiments were performed using MSCs at passage number 4-6.
Viability, Adhesion and Proliferation Characteristics. The viability of the cells was examined using trypan blue exclusion. […] The media was then aspirated and the cells were detached with 200 μL of cell dissociated solution (similar quantities of floating cells were observed between the groups, typically 5-10 per well). 300 μL of media was added and the total 500 μL of the cell dispersion was collected in an eppendorf tubes. From this 10 μL of cell dispersion was diluted to 1:1 with 4% trypan blue solution and cells were counted in a hemocytometer to determine the number viable (non-blue) and nonviable (blue) cells. A control for this experiment included cells treated with only phosphate buffer saline (PBS) without an amphiphile. Cell adhesion was quantified by measuring the number of adherent cells on tissue culture surfaces in 96 well plates after incubating with amphiphiles for 12 hours. For proliferation studies, 5000 cells were added to each well of a 96 well plate in 200 μL of MSC cell expansion media, and appropriate amphiphiles were then added and incubated at 37° C. and 5% CO2. Proliferation was quantified by manually tabulating the number of cells within the flask at multiple time points (1, 2, 3, 4, 6 and 8 days) with light microscopy at 10×.

With `CC(=O)Nc1ccc(OC(=O)CCCCCCC(=O)O)cc1` [Apn-7-COOH] the viable cells (250 μM, 48 hours incubation) was 87% and the “viability rates over concentration range” value (up to 500 μM, 48 hours) was “not significantly affected”.
